The target of this experiment is FXR (Homo sapiens (Human), UniProt Q96RI1). Briefly: transient human FXR/Gal4-luciferase reporter assay. Type of experiment: cell-based. The method in brief: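 Compound exposure ran overnight at 37 °C and activity was measured as luminescence with Steady-Glo reagent. The cells were a HEK293 line stably expressing firefly luciferase under five Gal4 response elements. They were transiently transfected, one night beforehand, with a plasmid encoding Gal4 DNA-binding domain fused to the human FXR ligand-binding domain.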
Background: In a reporter assay the amount or activity of a reporter protein is the signal.

Where [1] appears, read: Gal4-hFXR fusion construct, HEK293 reporter cells, response relative to 8 μM GW-4064.

Like-named read-outs stand apart in the source and are kept apart here.

Chain of FXR (Q96RI1 262-486): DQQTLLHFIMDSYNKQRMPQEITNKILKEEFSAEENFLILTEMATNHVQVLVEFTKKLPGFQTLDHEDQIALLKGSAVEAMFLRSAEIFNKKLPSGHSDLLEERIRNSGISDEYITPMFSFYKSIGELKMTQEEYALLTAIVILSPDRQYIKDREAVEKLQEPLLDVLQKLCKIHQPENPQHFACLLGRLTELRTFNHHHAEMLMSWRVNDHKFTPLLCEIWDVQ

As usually defined, the EC50 is the midpoint of the concentration-response curve. Low readings indicate a more potent agent, high ones a less potent agent. On to `Cc1nc2ncc(-c3cccc(N(CC45CCC(c6nc(C7CC7)no6)(CC4)CC5)C(=O)C45CC(F)(C4)C5)c3)cc2s1` [Example 278, N-((4-(3-cyclopropyl-1,2,4-oxadiazol-5-yl)bicyclo[2.2.2]octan-1-yl)methyl)-3-fluoro-N-(3-(2-methylthiazolo[4,5-b]pyridin-6-yl)phenyl)bicyclo[1.1.1]pentane-1-carboxamide], for which the EC50 under setting [1] is 0.083 µM.
As for `COc1ncc(-c2cccc(N(CC34CCC(c5nc(C6CC6)no5)(CC3)CC4)C(=O)C34CC(F)(C3)C4)c2)cn1` [Example 248, N-((4-(3-cyclopropyl-1,2,4-oxadiazol-5-yl)bicyclo[2.2.2]octan-1-yl)methyl)-3-fluoro-N-(3-(2-methoxypyrimidin-5-yl)phenyl)bicyclo[1.1.1]pentane-1-carboxamide], under setting [1], a half-maximal effect (EC50) was put at 0.154 µM.
Regarding `O=C(N(CC12CCC(c3nc(C4CC4)no3)(CC1)CC2)c1cccc(-c2ccc3c(c2)OC(F)(F)O3)c1)C12CC(F)(C1)C2` [Example 284, N-((4-(3-cyclopropyl-1,2,4-oxadiazol-5-yl)bicyclo[2.2.2]octan-1-yl)methyl)-N-(3-(2,2-difluorobenzo[d][1,3]dioxol-5-yl)phenyl)-3-fluorobicyclo[1.1.1]pentane-1-carboxamide], the EC50 under setting [1] was 0.233 µM.
Still for that read-out and setting: with `O=C(N(CC12CCC(c3nc(C4CC4)no3)(CC1)CC2)c1cccc(-c2ccc3nncn3c2)c1)C12CC(F)(C1)C2` [Example 323, N-(3-([1,2,4]triazolo[4,3-a]pyridin-6-yl)phenyl)-N-((4-(3-cyclopropyl-1,2,4-oxadiazol-5-yl)bicyclo[2.2.2]octan-1-yl)methyl)-3-fluorobicyclo[1.1.1]pentane-1-carboxamide] the figure was 1.63 µM.
The same measure, in the same setting: next, `COc1ncc(-c2cccc(N(CC34CCC(c5ccc(C6(C#N)CC6)cc5)(CC3)OC4)C(=O)C34CC(F)(C3)C4)c2)cn1` [Example 351, N-((1-(4-(1-cyanocyclopropyl)phenyl)-2-oxabicyclo[2.2.2]octan-4-yl)methyl)-3-fluoro-N-(3-(2-methoxypyrimidin-5-yl)phenyl)bicyclo[1.1.1]pentane-1-carboxamide]: 0.266 µM.
Under setting [1], `Cc1nc2cc(-c3cccc(N(CC45CCC(c6nc(C7CC7)no6)(CC4)CC5)C(=O)C45CC(F)(C4)C5)c3)ccc2o1` [Example 305, N-((4-(3-cyclopropyl-1,2,4-oxadiazol-5-yl)bicyclo[2.2.2]octan-1-yl)methyl)-3-fluoro-N-(3-(2-methylbenzo[d]oxazol-5-yl)phenyl)bicyclo[1.1.1]pentane-1-carboxamide] gave an EC50 of 0.301 µM. This EC50 and that of the compound before are within 1.5-fold of each other.
The same measure, in the same setting: next, `Cc1nc2ccc(-c3cccc(N(CC45CCC(c6ccc(C7(C#N)CC7)cc6)(CC4)OC5)C(=O)C45CC(F)(C4)C5)c3)cc2s1` [Example 346, N-((1-(4-(1-cyanocyclopropyl)phenyl)-2-oxabicyclo[2.2.2]octan-4-yl)methyl)-3-fluoro-N-(3-(2-methylbenzo[d]thiazol-6-yl)phenyl)bicyclo[1.1.1]pentane-1-carboxamide]: 0.181 µM; `CC(C)(F)c1nc(C23CCC(CN(c4cccc(C5=CCC(C(C)(C)O)CC5)c4)C(=O)[C@H]4C[C@](O)(C(F)(F)F)C4)(CC2)CC3)no1` (stereo partly drawn) [Example 587, (cis)-N-((4-(5-(2-fluoropropan-2-yl)-1,2,4-oxadiazol-3-yl)bicyclo[2.2.2]octan-1-yl)methyl)-3-hydroxy-N-(4′-(2-hydroxypropan-2-yl)-2′,3′,4′,5′-tetrahydro-[1,1′-biphenyl]-3-yl)-3-(trifluoromethyl)cyclobutane-1-carboxamide]: 0.042 µM.
On the same count and under the same terms, with `CC(C)(C)NC(=O)N(CC12CCC(c3noc(C(F)(F)F)n3)(CC1)CC2)c1cccc(-c2ccc(OC(F)F)cc2)c1` [Example 612, 3-(tert-butyl)-1-(4′-(difluoromethoxy)-[1,1′-biphenyl]-3-yl)-1-((4-(5-(trifluoromethyl)-1,2,4-oxadiazol-3-yl)bicyclo[2.2.2]octan-1-yl)methyl)urea] the figure was 0.065 µM; with `O=C(N(CC12CCC(c3noc(C4(F)CC4)n3)(CC1)CC2)c1cccc(C2CC2)c1)C12CC(F)(C1)C2` [Example 573, N-(3-cyclopropylphenyl)-3-fluoro-N-((4-(5-(1-fluorocyclopropyl)-1,2,4-oxadiazol-3-yl)bicyclo[2.2.2]octan-1-yl)methyl)bicyclo[1.1.1]pentane-1-carboxamide], 0.044 µM; with `CC(C)c1noc(C23CCC(CN(C(=O)C45CC(F)(C4)C5)c4cccc(-c5ccc(C(F)(F)F)nc5)c4)(CC2)CC3)n1` [Example 388, 3-fluoro-N-((4-(3-isopropyl-1,2,4-oxadiazol-5-yl)bicyclo[2.2.2]octan-1-yl)methyl)-N-(3-(6-(trifluoromethyl)pyridin-3-yl)phenyl)bicyclo[1.1.1]pentane-1-carboxamide], 0.906 µM.
The same measure, in the same setting: next, `Cc1cnc(-c2cccc(N(CC34CCC(c5nc(C6CC6)no5)(CC3)CC4)C(=O)C34CC(F)(C3)C4)c2)cn1` [Example 310, N-((4-(3-cyclopropyl-1,2,4-oxadiazol-5-yl)bicyclo[2.2.2]octan-1-yl)methyl)-3-fluoro-N-(3-(5-methylpyrazin-2-yl)phenyl)bicyclo[1.1.1]pentane-1-carboxamide]: 0.059 µM; `O=C(N(CC12CCC(c3nc(C4CC4)no3)(CC1)CC2)c1cccc(-c2cc(F)c3nccn3c2)c1)C12CC(F)(C1)C2` [Example 317, N-((4-(3-cyclopropyl-1,2,4-oxadiazol-5-yl)bicyclo[2.2.2]octan-1-yl)methyl)-3-fluoro-N-(3-(8-fluoroimidazo[1,2-a]pyridin-6-yl)phenyl)bicyclo[1.1.1]pentane-1-carboxamide]: 0.887 µM; `Cc1cnn2c(-c3cccc(N(CC45CCC(c6nc(C7CC7)no6)(CC4)CC5)C(=O)C45CC(F)(C4)C5)c3)cnc2c1` [Example 319, N-((4-(3-cyclopropyl-1,2,4-oxadiazol-5-yl)bicyclo[2.2.2]octan-1-yl)methyl)-3-fluoro-N-(3-(7-methylimidazo[1,2-b]pyridazin-3-yl)phenyl)bicyclo[1.1.1]pentane-1-carboxamide]: 0.161 µM.
For the compound `CC(F)(F)c1nc(C23CCC(CN(C(=O)C45CC(F)(C4)C5)c4ccc(F)c(C5CC5)c4)(CC2)CC3)no1` [Example 574, N-(3-cyclopropyl-4-fluorophenyl)-N-((4-(5-(1,1-difluoroethyl)-1,2,4-oxadiazol-3-yl)bicyclo[2.2.2]octan-1-yl)methyl)-3-fluorobicyclo[1.1.1]pentane-1-carboxamide], a half-maximal effect under setting [1] (EC50) was put at 0.244 µM.
For the compound `O=C(N(CC12CCC(c3nc(C4CC4)no3)(CC1)CC2)c1cccc(-c2cnc3cc(Cl)cnn23)c1)C12CC(F)(C1)C2` [Example 329, N-(3-(7-chloroimidazo[1,2-b]pyridazin-3-yl)phenyl)-N-((4-(3-cyclopropyl-1,2,4-oxadiazol-5-yl)bicyclo[2.2.2]octan-1-yl)methyl)-3-fluorobicyclo[1.1.1]pentane-1-carboxamide], the EC50 under setting [1] came to 0.222 µM.
Still for that read-out and setting: with `O=C(N(CC12CCC(c3nc(C4CC4)no3)(CC1)CC2)c1cccc(-c2cccc(OC(F)(F)C(F)F)c2)c1)C12CC(F)(C1)C2` [Example 299, N-((4-(3-cyclopropyl-1,2,4-oxadiazol-5-yl)bicyclo[2.2.2]octan-1-yl)methyl)-3-fluoro-N-(3′-(1,1,2,2-tetrafluoroethoxy)-[1,1′-biphenyl]-3-yl)bicyclo[1.1.1]pentane-1-carboxamide] the figure was 0.66 µM.
Regarding `CC(C)(C)c1nc(C23CCC(CN(C(=O)C45CC(F)(C4)C5)c4cc(-c5ccc(OC(F)F)cn5)ccn4)(CC2)CC3)no1` [Example 544, N-((4-(5-(tert-butyl)-1,2,4-oxadiazol-3-yl)bicyclo[2.2.2]octan-1-yl)methyl)-N-(5-(difluoromethoxy)-[2,4′-bipyridin]-2′-yl)-3-fluorobicyclo[1.1.1]pentane-1-carboxamide], the EC50 was determined as 0.02 µM.
On the same count and under the same terms, with `CCOc1ncc(-c2cccc(N(CC34CCC(c5nc(C(F)F)no5)(CC3)CC4)C(=O)C34CC(F)(C3)C4)c2)cn1` [Example 470, N-((4-(3-(difluoromethyl)-1,2,4-oxadiazol-5-yl)bicyclo[2.2.2]octan-1-yl)methyl)-N-(3-(2-ethoxypyrimidin-5-yl)phenyl)-3-fluorobicyclo[1.1.1]pentane-1-carboxamide] the figure was 0.164 µM.
Turning to `CCOc1ncc(-c2cccc(N(CC34CCC(c5ccc(C(F)(F)F)cn5)(CC3)CC4)C(=O)C34CC(F)(C3)C4)c2)cn1` [Example 487, N-(3-(2-ethoxypyrimidin-5-yl)phenyl)-3-fluoro-N-((4-(5-(trifluoromethyl)pyridin-2-yl)bicyclo[2.2.2]octan-1-yl)methyl)bicyclo[1.1.1]pentane-1-carboxamide], under setting [1], the EC50 was 0.418 µM.
On to `COc1nccc(-c2cccc(N(CC34CCC(c5nc(C6CC6)no5)(CC3)CC4)C(=O)C3CCC3)c2)n1` [Example 244, N-((4-(3-cyclopropyl-1,2,4-oxadiazol-5-yl)bicyclo[2.2.2]octan-1-yl)methyl)-N-(3-(2-methoxypyrimidin-4-yl)phenyl)cyclobutanecarboxamide], for which the EC50 under setting [1] is 0.576 µM.
`NS(=O)(=O)c1cccc(-c2cccc(N(CC34CCC(c5nc(C6CC6)no5)(CC3)CC4)C(=O)C34CC(F)(C3)C4)c2)c1` [Example 257, N-((4-(3-cyclopropyl-1,2,4-oxadiazol-5-yl)bicyclo[2.2.2]octan-1-yl)methyl)-3-fluoro-N-(3′-sulfamoyl-[1,1′-biphenyl]-3-yl)bicyclo[1.1.1]pentane-1-carboxamide]: the EC50 under setting [1] is 0.521 µM.
Same read-out and setting: with `CC(C)(F)c1nc(C23CCC(CN(c4cccc(C5=CC6(C5)CC(C(C)(C)O)C6)c4)C(=O)[C@H]4C[C@](O)(C(F)(F)F)C4)(CC2)CC3)no1` (stereo partly drawn) [Example 590, (cis)-N-((4-(5-(2-fluoropropan-2-yl)-1,2,4-oxadiazol-3-yl)bicyclo[2.2.2]octan-1-yl)methyl)-3-hydroxy-N-(3-(6-(2-hydroxypropan-2-yl)spiro[3.3]hept-1-en-2-yl)phenyl)-3-(trifluoromethyl)cyclobutane-1-carboxamide] the figure was 0.011 µM.

The record behind these values is patent US11254663B2 (BRISTOL-MYERS SQUIBB COMPANY, priority 2019, dated 2022).
